Reference: ChEMBL document CHEMBL5678818, “Discovery of potent SOS1 inhibitors that block RAS activation via disruption of the RAS-SOS1 interaction” (Proc Natl Acad Sci U S A, 2019)

Key:
[1] = target: Tyrosine-protein kinase Lyn (Homo sapiens) (UniProt P07948); assay: Inhibition of LYN (unknown origin) assessed as residual activity at 1000 nM by KINOMEscan analysis relative to control
[2] = target: Calcium/calmodulin-dependent protein kinase type 1G (Homo sapiens) (UniProt Q96NX5); assay: Inhibition of CAMK1G (unknown origin) assessed as residual activity at 1000 nM by KINOMEscan analysis relative to control
[3] = tested on: Receptor-type tyrosine-protein kinase FLT3 (Homo sapiens), P36888 [D835Y]; assay: Inhibition of FLT3 D835Y mutant (unknown origin) assessed as residual activity at 1000 nM by KINOMEscan analysis relative to control
[4] = tested on: Tyrosine-protein kinase ABL1 (Homo sapiens), P00519 [T315I]; assay: Inhibition of phosphorylated ABL1 T315I mutant (unknown origin) assessed as residual activity at 1000 nM by KINOMEscan analysis relative to control
[5] = target: Platelet-derived growth factor receptor beta (Homo sapiens) (UniProt P09619); assay: Inhibition of PDGFRB (unknown origin) assessed as residual activity at 1000 nM by KINOMEscan analysis relative to control
Sequence of Platelet-derived growth factor receptor beta (Homo sapiens) (P09619 whole entry, canonical isoform): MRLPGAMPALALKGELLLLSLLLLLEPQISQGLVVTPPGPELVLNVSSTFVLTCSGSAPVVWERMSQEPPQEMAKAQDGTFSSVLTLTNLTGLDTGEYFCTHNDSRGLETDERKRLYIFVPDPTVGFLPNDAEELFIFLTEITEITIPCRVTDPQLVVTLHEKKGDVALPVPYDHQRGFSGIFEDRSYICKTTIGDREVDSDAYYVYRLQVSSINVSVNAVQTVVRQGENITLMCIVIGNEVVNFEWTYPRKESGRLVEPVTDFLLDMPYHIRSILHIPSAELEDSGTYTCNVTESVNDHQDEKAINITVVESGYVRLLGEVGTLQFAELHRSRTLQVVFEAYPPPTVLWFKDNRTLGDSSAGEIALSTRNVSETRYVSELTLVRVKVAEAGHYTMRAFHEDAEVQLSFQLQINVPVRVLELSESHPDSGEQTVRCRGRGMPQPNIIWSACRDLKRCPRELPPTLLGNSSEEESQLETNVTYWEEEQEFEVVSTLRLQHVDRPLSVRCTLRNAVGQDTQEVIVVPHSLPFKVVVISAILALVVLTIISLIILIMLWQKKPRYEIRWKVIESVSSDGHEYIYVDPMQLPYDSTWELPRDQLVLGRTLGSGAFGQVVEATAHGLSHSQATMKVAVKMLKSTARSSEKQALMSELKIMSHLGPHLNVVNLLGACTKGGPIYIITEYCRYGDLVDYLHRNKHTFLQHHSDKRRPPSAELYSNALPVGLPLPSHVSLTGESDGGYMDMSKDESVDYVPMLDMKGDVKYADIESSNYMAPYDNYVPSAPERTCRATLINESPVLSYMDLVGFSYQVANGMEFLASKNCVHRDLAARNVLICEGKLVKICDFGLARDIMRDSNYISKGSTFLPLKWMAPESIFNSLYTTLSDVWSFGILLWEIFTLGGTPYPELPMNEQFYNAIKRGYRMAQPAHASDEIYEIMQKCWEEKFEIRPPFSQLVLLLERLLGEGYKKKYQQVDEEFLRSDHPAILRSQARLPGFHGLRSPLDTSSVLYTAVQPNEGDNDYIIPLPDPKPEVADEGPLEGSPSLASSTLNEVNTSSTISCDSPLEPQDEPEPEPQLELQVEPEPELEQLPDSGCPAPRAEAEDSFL

[6] = target: Phosphatidylinositol 4,5-bisphosphate 3-kinase catalytic subunit gamma isoform (Homo sapiens) (UniProt P48736); assay: Inhibition of PIK3CG (unknown origin) assessed as residual activity at 1000 nM by KINOMEscan analysis relative to control
[7] = target: T1, cGMP-dependent protein kinase 2 (Homo sapiens) (UniProt Q13237); assay: Inhibition of PRKG2 (unknown origin) assessed as residual activity at 1000 nM by KINOMEscan analysis relative to control
T1 sequence (whole entry): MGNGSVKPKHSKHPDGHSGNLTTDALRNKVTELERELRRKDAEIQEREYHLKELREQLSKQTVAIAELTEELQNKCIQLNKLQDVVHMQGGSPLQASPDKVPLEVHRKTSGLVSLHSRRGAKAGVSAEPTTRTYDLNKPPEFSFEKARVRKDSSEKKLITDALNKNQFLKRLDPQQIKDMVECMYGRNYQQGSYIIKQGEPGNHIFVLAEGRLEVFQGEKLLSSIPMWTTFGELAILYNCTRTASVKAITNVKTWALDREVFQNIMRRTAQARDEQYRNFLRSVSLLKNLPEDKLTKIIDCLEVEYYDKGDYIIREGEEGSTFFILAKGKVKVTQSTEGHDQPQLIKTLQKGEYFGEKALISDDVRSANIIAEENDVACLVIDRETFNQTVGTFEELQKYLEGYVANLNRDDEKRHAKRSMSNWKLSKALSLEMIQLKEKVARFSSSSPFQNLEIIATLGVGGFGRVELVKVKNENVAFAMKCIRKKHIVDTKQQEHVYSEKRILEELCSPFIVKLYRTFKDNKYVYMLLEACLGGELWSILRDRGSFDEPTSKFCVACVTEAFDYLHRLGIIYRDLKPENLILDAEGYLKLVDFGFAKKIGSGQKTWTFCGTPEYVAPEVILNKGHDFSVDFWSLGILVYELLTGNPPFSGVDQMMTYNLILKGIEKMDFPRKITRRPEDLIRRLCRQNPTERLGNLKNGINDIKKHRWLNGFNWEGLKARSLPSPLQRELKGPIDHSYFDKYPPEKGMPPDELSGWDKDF

[8] = target: Ephrin type-A receptor 7 (Homo sapiens) (UniProt Q15375); assay: Inhibition of EPHA7 (unknown origin) assessed as residual activity at 1000 nM by KINOMEscan analysis relative to control
Sequence of Ephrin type-A receptor 7 (Homo sapiens) (Q15375 28-998 limits assumed): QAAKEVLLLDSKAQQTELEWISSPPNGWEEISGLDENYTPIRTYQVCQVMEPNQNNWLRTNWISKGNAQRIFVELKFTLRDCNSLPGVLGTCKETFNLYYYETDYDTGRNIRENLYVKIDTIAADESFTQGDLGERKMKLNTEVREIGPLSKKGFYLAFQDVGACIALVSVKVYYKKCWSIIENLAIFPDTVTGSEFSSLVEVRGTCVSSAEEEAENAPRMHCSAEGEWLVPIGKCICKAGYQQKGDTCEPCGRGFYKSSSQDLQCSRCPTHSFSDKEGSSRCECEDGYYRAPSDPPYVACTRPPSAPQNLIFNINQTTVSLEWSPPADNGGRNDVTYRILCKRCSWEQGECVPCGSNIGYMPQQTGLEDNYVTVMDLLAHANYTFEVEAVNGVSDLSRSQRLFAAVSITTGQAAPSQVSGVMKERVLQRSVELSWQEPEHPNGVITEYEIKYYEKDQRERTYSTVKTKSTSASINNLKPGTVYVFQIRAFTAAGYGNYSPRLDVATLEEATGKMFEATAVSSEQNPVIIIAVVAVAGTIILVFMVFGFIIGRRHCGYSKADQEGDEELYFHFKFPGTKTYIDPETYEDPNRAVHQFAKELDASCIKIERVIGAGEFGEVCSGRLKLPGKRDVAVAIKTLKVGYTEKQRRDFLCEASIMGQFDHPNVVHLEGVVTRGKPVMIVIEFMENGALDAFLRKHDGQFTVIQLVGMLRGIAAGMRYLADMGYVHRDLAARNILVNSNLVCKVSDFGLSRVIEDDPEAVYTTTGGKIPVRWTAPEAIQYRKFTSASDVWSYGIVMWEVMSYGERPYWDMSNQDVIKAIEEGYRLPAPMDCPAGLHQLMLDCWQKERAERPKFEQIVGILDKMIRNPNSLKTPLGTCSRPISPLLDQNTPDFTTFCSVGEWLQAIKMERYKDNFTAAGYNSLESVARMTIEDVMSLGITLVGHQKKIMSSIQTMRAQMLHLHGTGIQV

Homo sapiens = organism: Homo sapiens; assay: Inhibition of JNK3 (unknown origin) assessed as residual activity at 1000 nM by KINOMEscan analysis relative to control
[9] = target: Serine/threonine-protein kinase 16 (Homo sapiens) (UniProt O75716); assay: Inhibition of STK16 (unknown origin) assessed as residual activity at 1000 nM by KINOMEscan analysis relative to control
Sequence of Serine/threonine-protein kinase 16 (Homo sapiens) (O75716 whole entry): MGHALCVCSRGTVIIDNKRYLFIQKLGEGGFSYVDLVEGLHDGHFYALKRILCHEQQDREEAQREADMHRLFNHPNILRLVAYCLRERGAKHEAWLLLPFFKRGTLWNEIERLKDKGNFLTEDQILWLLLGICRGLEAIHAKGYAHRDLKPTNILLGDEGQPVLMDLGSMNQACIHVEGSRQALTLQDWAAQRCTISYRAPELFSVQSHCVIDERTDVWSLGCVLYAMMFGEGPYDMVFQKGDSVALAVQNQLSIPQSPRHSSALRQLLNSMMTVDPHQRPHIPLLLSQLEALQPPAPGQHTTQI

[10] = target: Calcium/calmodulin-dependent protein kinase type 1D (Homo sapiens) (UniProt Q8IU85); assay: Inhibition of CAMK1D (unknown origin) assessed as residual activity at 1000 nM by KINOMEscan analysis relative to control
Sequence of Calcium/calmodulin-dependent protein kinase type 1D (Homo sapiens) (Q8IU85 whole entry, looked up): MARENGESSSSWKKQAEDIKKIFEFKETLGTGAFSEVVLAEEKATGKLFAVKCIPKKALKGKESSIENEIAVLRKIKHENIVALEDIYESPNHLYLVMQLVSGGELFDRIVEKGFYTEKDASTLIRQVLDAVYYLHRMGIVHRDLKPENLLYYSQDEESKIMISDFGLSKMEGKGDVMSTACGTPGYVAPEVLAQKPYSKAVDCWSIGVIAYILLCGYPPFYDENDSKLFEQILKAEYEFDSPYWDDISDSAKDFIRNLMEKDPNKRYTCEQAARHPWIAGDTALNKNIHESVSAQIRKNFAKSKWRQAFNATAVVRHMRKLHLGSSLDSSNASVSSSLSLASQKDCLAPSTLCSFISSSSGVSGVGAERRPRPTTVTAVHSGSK

[11] = target: RAC-beta serine/threonine-protein kinase (Homo sapiens) (UniProt P31751); assay: Inhibition of AKT2 (unknown origin) assessed as residual activity at 1000 nM by KINOMEscan analysis relative to control
[12] = target: Peripheral plasma membrane protein CASK (Homo sapiens) (UniProt O14936); assay: Inhibition of CASK (unknown origin) assessed as residual activity at 1000 nM by KINOMEscan analysis relative to control
[13] = target: T2, Dual specificity protein kinase TTK (Homo sapiens) (UniProt P33981); assay: Inhibition of TTK (unknown origin) assessed as residual activity at 1000 nM by KINOMEscan analysis relative to control
T2 sequence (whole entry): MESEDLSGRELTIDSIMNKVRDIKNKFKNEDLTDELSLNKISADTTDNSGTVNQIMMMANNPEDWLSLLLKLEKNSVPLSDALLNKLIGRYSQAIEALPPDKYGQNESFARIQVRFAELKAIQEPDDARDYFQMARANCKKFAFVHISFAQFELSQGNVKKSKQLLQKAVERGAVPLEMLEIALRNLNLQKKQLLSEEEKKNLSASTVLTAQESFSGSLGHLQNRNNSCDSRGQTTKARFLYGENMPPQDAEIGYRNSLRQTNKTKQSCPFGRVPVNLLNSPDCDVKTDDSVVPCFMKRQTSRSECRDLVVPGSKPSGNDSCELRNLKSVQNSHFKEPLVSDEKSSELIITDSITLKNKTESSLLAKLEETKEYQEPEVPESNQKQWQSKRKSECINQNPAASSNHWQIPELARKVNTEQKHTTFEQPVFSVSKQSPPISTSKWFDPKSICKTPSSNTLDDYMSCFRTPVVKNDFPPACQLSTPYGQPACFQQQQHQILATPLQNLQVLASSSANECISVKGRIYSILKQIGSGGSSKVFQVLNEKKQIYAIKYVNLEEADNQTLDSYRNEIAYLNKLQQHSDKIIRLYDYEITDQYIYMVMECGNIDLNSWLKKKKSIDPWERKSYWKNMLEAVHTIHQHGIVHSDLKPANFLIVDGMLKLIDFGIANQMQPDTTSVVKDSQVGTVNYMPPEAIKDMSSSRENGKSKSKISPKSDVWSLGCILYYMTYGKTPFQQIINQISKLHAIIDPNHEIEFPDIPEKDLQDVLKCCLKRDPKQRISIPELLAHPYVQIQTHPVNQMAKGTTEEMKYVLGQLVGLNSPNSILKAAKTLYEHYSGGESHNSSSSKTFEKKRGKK

[14] = target: Tyrosine-protein kinase Fes/Fps (Homo sapiens) (UniProt P07332); assay: Inhibition of FES (unknown origin) assessed as residual activity at 1000 nM by KINOMEscan analysis relative to control
Sequence of Tyrosine-protein kinase Fes/Fps (Homo sapiens) (P07332 whole entry): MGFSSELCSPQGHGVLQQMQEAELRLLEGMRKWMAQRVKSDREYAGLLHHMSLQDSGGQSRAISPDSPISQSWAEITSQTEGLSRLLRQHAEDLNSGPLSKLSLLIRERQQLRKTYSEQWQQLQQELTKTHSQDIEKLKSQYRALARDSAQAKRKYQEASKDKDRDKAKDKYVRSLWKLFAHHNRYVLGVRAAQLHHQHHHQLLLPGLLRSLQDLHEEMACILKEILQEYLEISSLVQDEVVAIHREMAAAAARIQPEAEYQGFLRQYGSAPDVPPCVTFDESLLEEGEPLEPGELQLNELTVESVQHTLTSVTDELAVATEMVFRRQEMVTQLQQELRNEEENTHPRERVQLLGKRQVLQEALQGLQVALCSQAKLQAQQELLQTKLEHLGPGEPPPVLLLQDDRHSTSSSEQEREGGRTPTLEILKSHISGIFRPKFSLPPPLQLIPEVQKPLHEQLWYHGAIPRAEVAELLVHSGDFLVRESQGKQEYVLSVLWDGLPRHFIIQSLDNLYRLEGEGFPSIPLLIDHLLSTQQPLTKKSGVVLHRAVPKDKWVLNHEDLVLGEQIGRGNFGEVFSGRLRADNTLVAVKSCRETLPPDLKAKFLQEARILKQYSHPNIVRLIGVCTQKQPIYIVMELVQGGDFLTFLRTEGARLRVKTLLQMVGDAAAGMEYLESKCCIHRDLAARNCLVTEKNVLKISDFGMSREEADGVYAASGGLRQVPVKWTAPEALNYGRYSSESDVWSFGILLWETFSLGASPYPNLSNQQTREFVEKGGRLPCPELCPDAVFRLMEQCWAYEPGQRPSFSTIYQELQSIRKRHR

[15] = target: Activin receptor type-2B (Homo sapiens) (UniProt Q13705); assay: Inhibition of ACVR2B (unknown origin) assessed as residual activity at 1000 nM by KINOMEscan analysis relative to control
Sequence of Activin receptor type-2B (Homo sapiens) (Q13705 whole entry): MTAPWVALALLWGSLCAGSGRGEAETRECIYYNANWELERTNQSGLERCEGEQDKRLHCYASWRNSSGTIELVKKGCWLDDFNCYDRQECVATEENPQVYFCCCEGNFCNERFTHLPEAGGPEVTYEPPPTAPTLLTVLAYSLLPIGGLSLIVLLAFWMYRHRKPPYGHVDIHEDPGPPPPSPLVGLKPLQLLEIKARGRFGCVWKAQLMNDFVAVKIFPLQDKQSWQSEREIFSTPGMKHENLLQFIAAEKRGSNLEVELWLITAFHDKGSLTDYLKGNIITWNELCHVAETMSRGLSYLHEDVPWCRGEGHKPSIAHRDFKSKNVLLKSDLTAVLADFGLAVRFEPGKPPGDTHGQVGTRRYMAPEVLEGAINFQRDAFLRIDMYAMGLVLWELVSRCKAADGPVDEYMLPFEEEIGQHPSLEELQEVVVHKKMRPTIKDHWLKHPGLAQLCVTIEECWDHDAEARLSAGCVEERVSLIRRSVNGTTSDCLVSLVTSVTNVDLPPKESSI

Sequence of Tyrosine-protein kinase Lyn (Homo sapiens) (P07948 2-512 limits assumed): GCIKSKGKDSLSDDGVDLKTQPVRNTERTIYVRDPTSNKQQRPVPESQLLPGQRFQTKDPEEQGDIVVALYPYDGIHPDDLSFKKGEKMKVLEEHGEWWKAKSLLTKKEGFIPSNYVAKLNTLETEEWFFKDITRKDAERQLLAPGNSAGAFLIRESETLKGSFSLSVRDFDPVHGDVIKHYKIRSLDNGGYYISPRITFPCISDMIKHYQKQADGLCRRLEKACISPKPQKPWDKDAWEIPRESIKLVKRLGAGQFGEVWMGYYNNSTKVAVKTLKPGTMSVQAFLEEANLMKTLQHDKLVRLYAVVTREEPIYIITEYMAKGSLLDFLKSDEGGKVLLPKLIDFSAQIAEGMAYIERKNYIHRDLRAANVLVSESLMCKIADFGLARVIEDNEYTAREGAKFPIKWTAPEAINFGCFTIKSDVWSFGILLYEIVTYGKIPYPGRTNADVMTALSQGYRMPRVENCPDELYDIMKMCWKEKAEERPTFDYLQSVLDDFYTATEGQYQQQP

Row | Compound | Activity [1] [%] | Activity [2] [%] | Activity [3] [%] | Activity [4] [%] | Activity [5] [%] | Activity [6] [%] | Activity [7] [%] | Activity [8] [%] | Activity (Homo sapiens) [%] | Activity [9] [%] | Activity [10] [%] | Activity [11] [%] | Activity [12] [%] | Activity [13] [%] | Activity [14] [%] | Activity [15] [%]
1 | COc1cc2nc(C)nc(N[C@H](C)c3cccc(-c4cn[nH]c4)c3)c2cc1OC | 100 | 100 | 89 | 99 | 100 | 97 | 98 | 100 | 80 | 74 | 68 | 99 | 78 | 78 | 45 | 91
2 | COc1cc2ncnc(N[C@H](C)c3cccc4ccccc34)c2cc1OC | 91 | 98 | 96 | 96 | 94 | 83 | 91 | 88 | 97 | 93 | 81 | 100 | 72 | 95 | 99 | 100
